From paper PMC3387026, “Substrate Cooperativity in Marine Luciferases” (PLoS ONE, 2012)

Columns and labels:
Assay in all cases: bioluminescence (luminometer), light integrated over first […] s
Type in all cases: biochemical
Settings in all cases: Tris-HCl pH 7.5, BSA; varied luciferin; O2 co-substrate
[1] = target: T1, RLuc (Renilla reniformis, UniProt P27652)
T1 construct: His-tagged, expressed in NEB T7 Express cells, nickel-purified; 37 kDa monomer
T1 sequence (P27652 1-311): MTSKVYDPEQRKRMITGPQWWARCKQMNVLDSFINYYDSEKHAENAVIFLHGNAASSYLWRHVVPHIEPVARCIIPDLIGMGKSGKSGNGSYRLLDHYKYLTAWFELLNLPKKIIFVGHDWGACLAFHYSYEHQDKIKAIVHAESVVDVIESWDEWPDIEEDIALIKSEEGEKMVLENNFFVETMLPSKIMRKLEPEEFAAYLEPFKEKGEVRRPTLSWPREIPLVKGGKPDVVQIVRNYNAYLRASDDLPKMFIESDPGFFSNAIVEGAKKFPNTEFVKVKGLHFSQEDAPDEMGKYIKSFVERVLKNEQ

[2] = target: T2, GLuc (Gaussia princeps (in: crustaceans), UniProt Q9BLZ2)
T2 construct: amino-terminal His tag, expressed in E. coli SHuffle, nickel-purified

[3] = target: T3, GLuc (Gaussia princeps (in: crustaceans), UniProt Q9BLZ2, M60L/M127L)
T3 construct: amino-terminal His tag, expressed in E. coli SHuffle, nickel-purified
T3 sequence (Q9BLZ2 entry or part of it M60L/M127L): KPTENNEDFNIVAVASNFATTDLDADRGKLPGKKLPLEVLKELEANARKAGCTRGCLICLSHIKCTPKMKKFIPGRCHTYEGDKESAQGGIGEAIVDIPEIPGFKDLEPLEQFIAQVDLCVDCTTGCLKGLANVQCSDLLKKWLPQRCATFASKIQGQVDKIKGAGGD

T2 sequence (Q9BLZ2 entry or part of it): as the sequence (Q9BLZ2 entry or part of it M60L/M127L) above, with L43M, L110M counted along it

SMILES: Oc1ccc(Cc2nc3c(Cc4ccccc4)nc(-c4ccc(O)cc4)cn3c2O)cc1 [coelenterazine]
- bioluminescence (luminometer), light integrated over first 10 s [1]: binding a single molecule of coelenterazine is sufficient for catalysis
- bioluminescence (luminometer), light integrated over first 10 s [2]: positive cooperative response of the GLuc activity with respect to coelenterazine
- bioluminescence (luminometer), light integrated over first 10 s [3]: GLuc, MLuc and the variant GLuc M43L/M110L of Welsh et al.
